Data reported in patent US20080152736A1, “Lipid Fraction of Nigella Sativa L. Seeds” (priority 2004, published 2008).

Key:
Corynebacterium pyogenes = assay: In vitro antimicrobial comparison, bore method (zone of inhibition); assay type: cell-based; details: Ampicillin 1: g/mg; mean ± S.E. of 4 observations
Protocol: (§1) The comparative antibacterial activity of ampicillin (1 microg/mg) and the Nigella sativa L. lipid fraction (1 mg/ml) against Staphylococcus pyogenes, Corynebacterium pyogenes and Salmonella typhi murium was performed in vitro using the bore method described by Cooper and Woodman (1964).

Salmonella typhi murium = assay: as above; assay type: cell-based; details: Ampicillin 1: g/mg; mean ± S.E. of 4 observations
Protocol: as §1

Staphylococcus pyogenes = assay: as above; assay type: cell-based; details: Ampicillin 1: g/mg; mean ± S.E. of 4 observations
Protocol: as §1

[1] = test system: guinea pigs exposed to histamine aerosol (0.25%); assay: Prophylactic anti-asthmatic effect, preconvulsive time on histamine aerosol; assay type: in vivo; details: ketotifen 50: g/kg, treated for 21 days; histamine (0.25%) aerosol
Protocol: This example explains in vivo studies to evaluate the prophylactic (protective) anti-asthmatic effect of the Nigella sativa L. lipid fraction of the present invention. The prophylactic anti-asthmatic effect was evaluated in vivo by measurement of the preconvulsive time in guinea pigs exposed to histamine aerosol (0.25%).
Guinea pigs were divided into three groups with 8 animals per group. The first group received saline with injection to serve as negative control. The second group received ketotifen, which is the standard treatment to serve as positive control. The third group received 200 mg/kg each of the Nigella sativa L. lipid fraction of the present invention.
Animals in all groups were treated for 21 days following, after which they were exposed to histamine (0.25%) aerosol and the preconvulsive time was recorded.

[2] = test system: sensitized guinea pigs exposed to ova albumin inhalation; assay: Tachypnea protective effect in ova albumin sensitized animals; assay type: in vivo; details: ketotifen 50: g/kg, treated for 21 days
Protocol: This experiment was an in vivo study to evaluate the tachypnea (protective) effect of the Nigella sativa L. lipid fraction of the present invention. The second protocol involved sensitized animals. Animals were sensitized by injecting ova albumin in two doses 100 mg each (S.C. and I.P., simultaneously). Animals were resensitized 15 days later. Guinea pigs were divided into three groups with 8 animals per group. The first group received a saline injection to serve as negative control. The second group received ketotifen which is the standard treatment to serve as positive control. The third group received 200 mg/kg each of the Nigella sativa L. lipid fraction of the present invention. Animals in all groups were treated for 21 days following which they were exposed to ova albumin inhalation and time to onset of tachypnea was recorded as shown in the table below.

[3] = 16 published human studies, total of 590 subjects; cited from earlier work

CC1(C)S[C@@H]2[C@H](NC(=O)[C@H](N)c3ccccc3)C(=O)N2[C@H]1C(=O)O [Ampicillin, ampicillin]
Diameter of Zone of inhibition (Corynebacterium pyogenes): 44.7 ± 0.8 mm | Diameter of Zone of inhibition (Salmonella typhi murium): 13.1 ± 0.2 mm | Diameter of Zone of inhibition (Staphylococcus pyogenes): 26.7 ± 0.3 mm

CN1CCC(=C2c3ccccc3CC(=O)c3sccc32)CC1 [ketotifen]
% of Prophylaxis (Protection) [1]: 82.85% | % of Prophylaxis [2]: 44.4%

phytosterol
average reduction in total cholesterol [3]: 10% | reduction in LDL cholesterol levels [3]: 13%
